US10028992B2, “Methods of treating muscular dystrophy” (BOARD OF REGENTS OF THE NEVADA SYSTEM OF HIGHER EDUCATION …, priority 2012, dated 2018)

Tested on: α7 integrin promoter
Assay: muscle cell-based assay: α7βgal+/− myoblasts/myotubes, LacZ reporter, β-galactosidase cleavage of FDG
Set-up: species or system mouse; Results in α7+/− β-galactosidase assay: scale not given here
Details: Myoblasts
Procedure, shortened: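 Primary α7βgal+/− mouse myoblasts (LacZ knocked into α7 integrin exon 1, promoter retained), differentiated; promoter activity read as β-galactosidase conversion of non-fluorescent FDG to fluorescein. Hits followed by dose-response, western analysis and myostatin counterscreen.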

Row | SMILES | Results in α7+/− β-galactosidase assay (0.5 uM) | Results in α7+/− β-galactosidase assay (1 uM) | Results in α7+/− β-galactosidase assay (5 uM) | Results in α7+/− β-galactosidase assay (10 uM) | Results in α7+/− β-galactosidase assay (20 uM) | Results in α7+/− β-galactosidase assay (40 uM)
1 | CC(C)Oc1ccc(C(=O)/C=C2\C(=O)Nc3ccccc32)cc1 [drawing 531] | 0.3276 | 0.2225 | −0.3766 | −0.6765 | −0.7978 | −0.9731
2 | COc1ccc(NC(=O)C2(N(C(=O)Cn3nnnc3N)c3ccc(OC)cc3)CCCCC2)cc1 [drawing 532] | 0.2391 | 0.1433 | 0.4897 | −0.1284 | −0.274 | −0.3931
3 | COc1ccc(CCNC(=O)Cn2nnc(C(=O)Nc3ccc(Br)cc3)c2N)cc1OC [drawing 533] | 0.1152 | 0.03848 | −0.06784 | −0.0702 | −0.3276 | −0.5608
4 | CC1(C)Cc2c(cnn2-c2cccc(F)c2)C(NC(=O)CCc2cnccn2)C1 (stereo not drawn) [drawing 534] | 0.2096 | 0.1101 | −0.01619 | −0.03841 | 0.02411 | −0.09429
5 | O=C1Nc2ccccc2/C1=C/c1cccnc1 [drawing 535] | 0.259 | 0.1621 | −0.1077 | −0.235 | −0.5331 | −0.7528
6 | CNC(=O)CSc1nnc(-c2ccc3c(c2)OCO3)n1C [drawing 536] | 0.1583 | 0.04195 | 0.03203 | 0.03846 | −0.04001 | −0.01341
7 | Cc1ccccc1NC(=O)NCCCN1CCN(C)CC1 [drawing 537] | 0.06224 | 0.06912 | 0.01544 | −0.04766 | 0.09447 | 0.1887
8 | CC1(C)Cc2c(c(N3CCOCC3)nc3sc(C(=O)Nc4ccccc4)c(N)c23)CO1 [drawing 538] | 0.2085 | 0.2916 | −0.3961 | −0.7131 | −0.4322 | −0.3536
9 | COc1ccc(N2CCN(C(=O)c3cc(C)on3)CC2)cc1 [drawing 539] | 0.06118 | 0.157 | 0.07966 | 0.01243 | 0.1011 | 0.07367
10 | CCOn1c(=O)c(-c2ccccc2)[n+]([O-])c2ccccc21 [drawing 540] | 0.2811 | 0.2862 | 0.8432 | −0.07816 | 0.1113 | 0.0836
11 | O=S(=O)(N/C(=N/C1CCCCC1)c1ccccc1F)c1ccccc1 [drawing 542] | 0.02381 | 0.1877 | 0.03277 | 0.0429 | 0.04651 | 0.01846
12 | CCCCNc1nnc(Cc2ccc(Cl)cc2)c(O)n1 [drawing 543] | 0.1426 | 0.2067 | −0.06804 | −0.2224 | −0.259 | −0.2813
13 | CC(C)CN(C(=O)c1cccc(Cl)c1)c1c(N)n(Cc2ccccc2)c(=O)[nH]c1=O [drawing 544] | 0.1169 | 0.2337 | 0.01239 | −0.05318 | −0.1028 | −0.2221
14 | Cc1nc(O)nc(O)c1S(=O)(=O)Nc1ccc(F)cc1Cl [drawing 545] | 0.03945 | 0.1557 | 0.0782 | −0.00196 | 0.02136 | −0.01244
